Experimental data: patent publication US11311625B2, “Peptide-based multiple-drug delivery vehicle” (priority 2015, dated 2022)

Key:
[1] = Chemo-stability and drug release of 9a and CLB in buffers at pH 2, 5 and 7.4 (LC-MS); type: physicochemical
Protocol: Stock solutions chemo-stability studies were prepared by dissolving 5 mg of the tested compound in 5000 μl of DMSO.
Incubation procedure: Aqueous stability was determined at pH 2, 5 and 7.4. Aliquots (100 μl) of stock solution were diluted to a total of 2.5 mL with the desired buffer and then incubated at 37° C. During the incubation period (up to 160 h) 250 μL portions were drawn at different time intervals, filtered and analyzed by LC-MS.
Peptidyl delivery systems loaded with anticancer drugs are expected to reach their site of action with minimal degradation. The PDS should be stable enough to be absorbed by cancer cells and only then deliver its toxic cargo. Chemo-stability and bio-stability studies may give us a background check for the endurance of our compact peptidyl DDS under the different conditions it is expected to encounter in a potential animal test. To that end, samples of 9a were incubated at pH 2, mimicking stomach conditions, at pH 5 mimicking the microenvironment in tumors, and at physiological pH 7.4, all at 37° C. Aliquots from the stock solutions were extracted at different time intervals and analyzed by LC-MS following the decrease in concentration of 9a (i.e., chemical degradation) and the formation of the dihydroxy derivative 11. In addition, the direct release of the different drugs was also followed based on the increase in the concentration of CLB, AZA and CAMP over time. In this analysis samples of 9a, 11, CLB, AZA and CAMP were used as references. Overall, the HPLC trace presents a very complex mixture of metabolites which could not be exhaustively characterized. Scheme 9 below presented the molecular structure 11.

[2] = test system: H1299 human non-small cell lung carcinoma cells; assay: XTT growth inhibition assay, H1299; type: cell-based; conditions: 10 μM, incubation of 72 h
Protocol: (§1) The cytotoxicity of the peptide-drug conjugates was determined by measuring the mitochondrial enzyme activity, using a commercial XTT assay kit. All samples contained DMSO at final concentration <0.05%. Cells were cultured in micro wells at 2-4×10^4 cells/ml and incubated for 24 h or 72 h. After the first incubation period the cultures were washed and then given fresh medium containing different concentrations of the tested substances. At the end of the second incubation, XTT reagent was added and the cells were re-incubated for additional 2-4 h. During that time the absorbencies in the wells were measured with a TECAN Infinite M200 plate reader at both 480 and 680 nm. The difference between these measurements was used for calculating the % Growth Inhibition (GI) in test wells compared to two controls: cells that were exposed to the medium and solvent, and those that were exposed to a solvent-free medium. All the tests were done in quadruplicates. Each experiment was conducted twice.
(§2) In order to compare the cytotoxic effects of the conjugates relative to the free drugs, the in vitro cytotoxic effect of the drug bioconjugates 1a-e was determined on SSTR2 overexpressed HCT 116 human colorectal carcinoma, H1299 human non-small cell lung carcinoma and TRAMP C2 human prostate cancer cell lines. The SSTR2 low-expressed HEK-293 (Human Embryonic Kidney 293) cell line was used as a negative control. The study was elaborated over a concentration range of 1-10 μM.
FIGS. 13A-13D present the results of the XTT growth inhibition assay conducted for conjugates 1a-e. […] After the treatment, growth inhibition was measured using the XTT assay: The culture medium was replaced by a new one, and then the XTT reagent was added. The wells were incubated for 2-4 hrs. after which the optical density (OD) was measured at 480 and 680 nm. Percentage of growth inhibition for each compound was calculated by comparison of the treated culture versus a control culture (free of any compound). The result shown for each concentration point represents the mean±standard error calculated from two different experiments. […]

[3] = Bio-stability and drug release of conjugates 1a-e in murine liver homogenate (LH); type: in vitro ADME, mouse; conditions: for half-life: mouse, tissue homogenate, read-out: degradation t1/2 in liver homogenate
Protocol: Preparation of liver homogenate: Mice were sacrificed by CO2 inhalation euthanasia. The livers were removed, minced, washed three times in cold PBS buffer and homogenized in Tris-HCl buffer, pH 7.4 (wt/3 vol.) by dozen strokes in a Potter-Elvehjem glass tissue grinder. The tissue homogenate was centrifuged at 4° C., 14000 rpm, 20 min. The supernatant was carefully collected (liver homogenate) and used immediately or else stored in liquid nitrogen.
Incubation procedure: Incubations were conducted in a 37° C. incubator with 2 ml homogenate (equivalent to 6 mg total protein of mouse liver homogenate) per incubation tube. The samples were prepared by adding 50 μl of stock solution to the homogenate (homogenate mixture) at the beginning of the incubation period. Aliquots of the homogenate mixture were removed after 10, 30, 60, 90, 120 and 180 min and then immediately quenched with 2.5 volumes of ethanol. The samples were centrifuged at 14000 rpm for 15 min. Supernatants were collected, filtered and analyzed by LC-MS.
FIGS. 12A-12E present the results of the bio-stability and drug release profiles assays conducted for conjugates 1a-e in LH. […] Stock solutions were prepared by dissolving 5 mg of the measured conjugate in 0.5 ml DMSO. 50 μl of the stock solution were diluted with 2 ml of fresh mouse liver homogenate and then the mixture was incubated at 37° C. Aliquots were collected at 10, 30, 60, 90 and 120 min, mixed with 2.5 volumes of ethanol and centrifuged (14,000 rpm, 15 min). The supernatants were collected, filtered and analyzed by LC-MS

[4] = test system: HCT 116, H1299, TRAMP C2 and HEK cell lines; assay: XTT growth inhibition assay, statements over all tested cell lines; type: cell-based, human; conditions: for IC50 values: tested cell lines including HEK; for cytotoxicity throughout the study: 1-10 μM, 24 and 72 h
Protocol: as §1, §2
FIGS. 13A-13D present the results of the XTT growth inhibition assay conducted for conjugates 1a-e. Growth inhibition effect of drug-conjugates versus free drugs was studied on three cell lines with an over-expression of SSTR2 (FIG. 13A. HCT 116; FIG. 13B. H1299; FIG. 13C. TRAMP C2) against the SSTR2 low expression cell line (FIG. 13D) HEK as negative control. All the cell lines were seeded and allowed to adhere in the wells, after which they were treated with the different compounds in increasing concentrations for 24 and 72 hr. After the treatment, growth inhibition was measured using the XTT assay: The culture medium was replaced by a new one, and then the XTT reagent was added. The wells were incubated for 2-4 hrs. after which the optical density (OD) was measured at 480 and 680 nm. Percentage of growth inhibition for each compound was calculated by comparison of the treated culture versus a control culture (free of any compound). The result shown for each concentration point represents the mean±standard error calculated from two different experiments. In each experiment the compounds were tested in quadruplicates.

[5] = Chemo-stability and drug release of conjugates 1a-e in buffers at pH 2, 5 and 7.4 (LC-MS); type: physicochemical; conditions: for half-life at 0.4 mg/ml: buffer
Protocol: Incubation procedure: Aqueous stability was determined at pH 2.0 (phosphate buffer), 5.0 (citrate buffer) and 7.4 (PBS buffer). 100 μl of the stock solutions were diluted to 2.5 ml with the desired buffer and then incubated at 37° C. During the incubation period (up to 200 hrs.), aliquots were removed at different time intervals, filtered and analyzed by LC-MS.
Chemo-stability. The chemo-stability tests of the conjugates were performed at three different pH values; a physiological pH of 7.4, the slightly acidic pH 5, mimicking the microenvironment in tumors, and the more acidic pH 2.
FIGS. 11A-11J present the results of the chemo-stability and drug release profiles assays, conducted for conjugates 1a-e at pH 2, 5 and 7.4. Degradation of 1a (FIG. 11A), 1b (FIG. 11C), 1c (FIG. 11E), 1d (FIG. 11G), 1e FIG. 11 (FIG. 11I), and the release of the corresponding drugs: CLB (FIG. 11B), CPT (FIG. 11D), AM (FIG. 11F), ABT-751 (FIG. 11H), and COMB (FIG. 11J). Stock solutions were prepared by dissolving 5 mg of the measured conjugate in 0.5 ml DMSO. 100 μl of the stock solution were diluted to 2.5 ml with the relevant buffer and then incubated at 37° C. Along the incubation period, aliquots were taken at the desired time points and analyzed by LC-MS.

[6] = Bio-stability of 9a in murine liver homogenate (LH); type: in vitro ADME, mouse
Protocol: Preparation of the LH and assay: Mice were sacrificed by CO2 inhalation euthanasia. The livers were removed, minced, washed three times in cold PBS buffer and homogenized in Tris-HCl, pH 7.4 buffer (wt/3 vol.) by dozen strokes in a Potter-Elvehjem glass tissue grinder. The tissue homogenate was centrifuged at 4° C., 14000 rpm, 20 min. The supernatant was carefully collected (LH) and used immediately or else stored in liquid nitrogen. The concentration of protein was measured using the BCA protein assay with bovine serum albumin as a standard.
Assay incubation procedure: Incubations were conducted in an incubator oven set at 37° C. Each incubation tube contained 2 mL homogenate samples (equivalent to 6 mg total protein of mouse LH). The samples were prepared by adding 50 μL of stock solution to the LH at the beginning of the incubation period. Aliquots (100 μL) of the LH mixture were removed after 10, 30, 60, 90, 120, and 180 min. immediately quenched with 2.5 volumes of ethanol, and centrifuged at 14000 rpm for 15 min. The supernatants were collected, filtered and analyzed by LC-MS.
In order to get a biologically relevant picture of the release sequence of the different drugs, the bio-stability of 9a in murine liver homogenate (LH) was studied. Examination of the degradation rate of 9a, accompanied by cleavage of free drugs, was carried out following the LC-MS trace at different time intervals using premade authentic samples as reference signals.

CC[C@]1(OC(=O)NCCCC[C@H](NC(=O)CCCc2ccc(N(CCO)CCO)cc2)C(=O)NCCCC[C@H](NC(=O)Oc2c(OC)cc([C@H]3c4[nH]c5ccccc5c4CC4COC(=O)N43)cc2OC)C(=O)O)C(=O)OCc2c1cc1n(c2=O)Cc2cc3ccccc3nc2-1 (stereo partly drawn) [compound 11]
time after which no traces of 11 are left ([1]; all three pH cases): 40 h | time at which formation of 11 from 9a reaches its maximum ([1]; all three pH cases): 5 h

COc1ccc(S(=O)(=O)Nc2cccnc2Nc2ccc(O)cc2)cc1 [ABT-751, reference compound]
cytotoxic effect on H1299 [2]: considerable cytotoxic effect | stability of free drug in liver homogenate ([3]; measured time period): rapid degradation | IC50 values [4]: low μM range | degradation of free drug ([5]; buffers, 37° C.): certain degradation behavior

COc1cc([C@@H]2c3[nH]c4ccccc4c3C[C@H]3COC(=O)N32)cc(OC)c1OC(=O)N[C@@H](C)C(=O)O [compound 12]
time the carbamate link remains intact in LH [6]: at least 120 min

C[C@@H](O)[C@@H]1NC(=O)[C@H](CCCCN)NC(=O)[C@@H](Cc2c[nH]c3ccccc23)NC(=O)[C@H](Cc2c[nH]c3ccccc23)NC(=O)[C@H](Cc2ccccc2)NC(=O)[C@@H](NC(=O)[C@@H](Cc2ccccc2)NC(=O)CCCNC(=O)CCCC(=O)Nc2cc3c4c(cccc4c2)C(=O)N(CCN(C)C)C3=O)CSSCCN(CC(N)=O)C(=O)[C@H](Cc2ccccc2)NC1=O [conjugate 1c]
half-life at 0.4 mg/ml ([5]; pH 2): 48 h | half-life at 0.4 mg/ml ([5]; pH 5): 28 h | half-life at 0.4 mg/ml ([5]; pH 7.4): 103 h

CN(C)CCN1C(=O)c2cccc3cc(N)cc(c23)C1=O [amonafide, reference compound]
cytotoxicity throughout the study [4]: poorly active | stability of free drug ([5]; acidic pH 2): relatively low stability

COc1ccc(/C=C\c2cc(OC)c(OC)c(OC)c2)cc1O [COMB, combretastatin A4]
IC50 values [4]: low μM range

C[C@@H](O)[C@@H]1NC(=O)[C@H](CCCCN)NC(=O)[C@@H](Cc2c[nH]c3ccccc23)NC(=O)[C@H](Cc2c[nH]c3ccccc23)NC(=O)[C@H](Cc2ccccc2)NC(=O)[C@@H](NC(=O)[C@@H](Cc2ccccc2)NC(=O)CCCNC(=O)CCCc2ccc(N(CCCl)CCCl)cc2)CSSCCN(CC(N)=O)C(=O)[C@H](Cc2ccccc2)NC1=O [conjugate 1a]
half-life ([3]; 37° C.): 0.95 h | cytotoxicity throughout the study [4]: poorly active | degradation of conjugate ([5]; all tested pH values (pH 2, 5, 7.4), 37° C.): considerable degradation | CLB release from conjugate ([5]; pH 2, 5 and 7.4, 37° C.): observed only at acidic pH 2 | half-life ([5]; pH 2, 37° C., read-out: CLB release t1/2 (converted)): 51 h

CC[C@@]1(OC(=O)NCCCC(=O)N[C@H](Cc2ccccc2)C(=O)N[C@H]2CSSCCN(CC(N)=O)C(=O)[C@H](Cc3ccccc3)NC(=O)[C@H]([C@@H](C)O)NC(=O)[C@H](CCCCN)NC(=O)[C@@H](Cc3c[nH]c4ccccc34)NC(=O)[C@H](Cc3c[nH]c4ccccc34)NC(=O)[C@H](Cc3ccccc3)NC2=O)C(=O)OCc2c1cc1n(c2=O)Cc2cc3ccccc3nc2-1 [conjugate 1b]
cytotoxic effect on H1299 [2]: most active | half-life ([3]; pH 7.4, 37° C.): 0.617 h | cytotoxicity throughout the study [4]: targeted but cell selective cytotoxicity

O=C(O)CCCc1ccc(N(CCCl)CCCl)cc1 [CLB, Chlorambucil, reference compound]
degradation of pure CLB ([1]; all tested pH values (2, 5, 7.4), 37° C.): considerable degradation | relative stability of CLB ([1]; pH 5): least stable | cytotoxicity throughout the study [4]: poorly active
